Laboratory results taken from patent US12129237B2, “Substituted diaminocarboxamide and diaminocarbonitrile pyrimidines, compositions thereof, and methods of treatment therewith” (SIGNAL PHARMACEUTICALS, LLC, priority 2011, dated 2024).

What follows are molecules tested against T1, JNK1 (Homo sapiens, UniProt P45983) (assay: JNK1 biochemical assays (one or more of: time resolved fluorescence, Z'-LYTE Cascade, radioactive)). Conditions: Table 2; JNK1 IC50 activity level; read-out: Act. Level.
T1 construct: purchased Carna Biosciences
T1 sequence (P45983 whole entry): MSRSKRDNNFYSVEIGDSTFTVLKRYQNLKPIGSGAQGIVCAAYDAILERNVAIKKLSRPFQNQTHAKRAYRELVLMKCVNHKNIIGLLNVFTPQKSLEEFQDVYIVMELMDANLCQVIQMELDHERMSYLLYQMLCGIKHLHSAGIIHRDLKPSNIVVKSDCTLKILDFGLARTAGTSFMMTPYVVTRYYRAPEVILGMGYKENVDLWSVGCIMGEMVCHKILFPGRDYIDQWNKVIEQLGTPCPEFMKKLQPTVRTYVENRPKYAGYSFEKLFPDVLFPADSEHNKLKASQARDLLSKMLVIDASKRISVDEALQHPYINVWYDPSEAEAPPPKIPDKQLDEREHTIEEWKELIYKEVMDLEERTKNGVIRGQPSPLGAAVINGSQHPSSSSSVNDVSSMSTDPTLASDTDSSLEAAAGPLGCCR

Row | IC50 | Structure (SMILES)
1 | < 200 nM | COc1ccc(C)c(Nc2ncc(C(N)=O)c(Nc3ccccc3)n2)c1 [Example B-34, 2-(5-methoxy-2-methylphenylamino)-4-(phenylamino)pyrimidine-5-carboxamide]
2 | < 200 nM | NC(=O)c1cnc(NC2CC2)nc1Nc1ccccc1 [Example B-36, 2-(cyclopropylamino)-4-(phenylamino)pyrimidine-5-carboxamide]
3 | 200 to 800 nM | NC(=O)c1cnc(NCc2ccc(F)cc2)nc1Nc1ccccc1 [Example B-67, 2-(4-fluorobenzylamino)-4-(phenylamino)pyrimidine-5-carboxamide]
4 | < 200 nM | COc1ccccc1Nc1ncc(C(N)=O)c(Nc2ccccc2)n1 [Example B-15, 2-(2-methoxyphenylamino)-4-(phenylamino)pyrimidine-5-carboxamide]
5 | < 200 nM | NC(=O)c1cnc(N[C@@H]2CCc3cccnc3C2)nc1N[C@@H]1CCC[C@H](O)C1 [Example B-88, 4-((1R,3S)-3-hydroxycyclohexylamino)-2-((R)-5,6,7,8-tetrahydroquinolin-7-ylamino)pyrimidine-5-carboxamide]
6 | < 200 nM | CCC(C)CNc1ncc(C(N)=O)c(Nc2ccccc2)n1 (stereo not drawn) [Example B-59, 2-(2-methylbutylamino)-4-(phenylamino)pyrimidine-5-carboxamide]

Same assay, conditions: Table 3; JNK1 IC50 activity level; read-out: Act. Level

Row | IC50 | Structure (SMILES)
7 | < 200 nM | CO[C@H]1CC[C@H](Nc2ncc(C#N)c(N[C@@H]3CCCC[C@@](C)(O)C3)n2)CC1 [Example C-53, 4-((1R,3R)-3-hydroxy-3-methylcycloheptylamino)-2-((1r,4R)-4-methoxycyclohexylamino) pyrmidine-5-carbonitrile]
8 | < 200 nM | CN(C)C(=O)[C@H]1CC[C@H](Nc2ncc(C#N)c(N[C@@H]3CCC[C@H](O)C3)n2)CC1 [Example C-9, (1R,4r)-4-(5-cyano-4-((1R,3S)-3-hydroxycyclohexylamino)pyrimidin-2-ylamino)-N,N-dimethylcyclohexanecarboxamide]
9 | 1000 to 10000 nM | CC(C)CNc1nc(N[C@H]2CC[C@H](O)CC2)ncc1C#N [Example C-55, 2-((1r,4r)-4-hydroxycyclohexylamino)-4-(isobutylamino)pyrimidine-5-carbonitrile]
10 | < 200 nM | CCC(C)(C)Nc1nc(N[C@H]2CC[C@H](O)CC2)ncc1C#N [Example C-62, 2-((1r,4r)-4-hydroxycyclohexylamino)-4-(tert-pentylamino)pyrimidine-5-carbonitrile]
11 | 200 to 800 nM | N#Cc1cnc(NC2CCC(F)(F)CC2)nc1N[C@@H]1CCC[C@@H]1CO [Example C-64, 2-(4,4-difluorocyclohexylamino)-4-((1R,2S)-2-(hydroxymethyl)cyclopentylamino) pyrimidine-5-carbonitrile]
12 | < 200 nM | CO[C@H]1CC[C@H](Nc2ncc(C#N)c(N[C@H]3CCCC[C@@](C)(O)C3)n2)CC1 [Example C-52, 4-((1S,3R)-3-hydroxy-3-methylcycloheptylamino)-2-((1r,4S)-4-methoxycyclohexylamino) pyrimidine-5-carbonitrile]

Same assay, conditions: one or more of the JNK1 biochemical assays; read-out: Act. Level (JNK1 IC50 activity level)

Row | IC50 | Structure (SMILES)
13 | < 200 nM | C[C@@H](Nc1nc(N[C@H]2CC[C@H](OCC(F)(F)F)CC2)ncc1C(N)=O)C1CC1 [Example 409, 4-((R)-1-cyclopropylethylamino)-2-((1r,4R)-4-(2,2,2-trifluoroethoxy)cyclohexylamino)pyrimidine-5-carboxamide]
14 | < 200 nM | CCO[C@H]1CC[C@H](Nc2ncc(C(N)=O)c(NC3(CC)CCCCC3)n2)CC1 [Example 478, 2-((1r,4r)-4-ethoxycyclohexylamino)-4-(1-ethylcyclohexylamino)pyrimidine-5-carboxamide]
15 | < 200 nM | NC(=O)c1cnc(N[C@H]2CC[C@H](O)CC2)nc1NCC1CCC1 [Example 221, 4-(cyclobutylmethylamino)-2-((1r,4r)-4-hydroxycyclohexylamino)pyrimidine-5-carboxamide]
16 | < 200 nM | CC(C)(C)C12CC(Nc3nc(N[C@H]4CC[C@H](O)CC4)ncc3C(N)=O)(C1)C2 [Example 493, 4-(3-tert-butylbicyclo[1.1.1]pentan-1-ylamino)-2-((1r,4r)-4-hydroxycyclohexylamino)pyrimidine-5-carboxamide]
17 | < 200 nM | CO[C@H]1CC[C@H](Nc2ncc(C(N)=O)c(N[C@]3(C)CCC[C@H](O)C3)n2)CC1 [Example 215, 4-((1R,3S)-3-hydroxy-1-methylcyclohexylamino)-2-((1r,4R)-4-methoxycyclohexylamino)pyrimidine-5-carboxamide]
18 | < 200 nM | CCO[C@H]1CC[C@H](Nc2ncc(C(N)=O)c(NC3(C)CCC3)n2)CC1 [Example 401, 2-((1r,4r)-4-ethoxycyclohexylamino)-4-(1-methylcyclobutylamino)pyrimidine-5-carboxamide]
19 | < 200 nM | C[C@@H](Nc1nc(N[C@H]2CC[C@H](O)CC2)ncc1C(N)=O)C(C)(C)C [Example 281, 4-((R)-3,3-dimethylbutan-2-ylamino)-2-((1r,4R)-4-hydroxycyclohexylamino)pyrimidine-5-carboxamide]
20 | < 200 nM | NC(=O)c1cnc(NC2CCCC(O)CC2)nc1NC1CCC1 (stereo not drawn) [Example 249, 4-(cyclobutylamino)-2-(4-hydroxycycloheptylamino)pyrimidine-5-carboxamide]
21 | < 200 nM | NC(=O)c1cnc(NC2CCCC(O)CC2)nc1NC1CCC1 (stereo not drawn) [Example 248, 4-(cyclobutylamino)-2-(4-hydroxycycloheptylamino)pyrimidine-5-carboxamide]
22 | < 200 nM | C[C@@H]1CC[C@@H](Nc2nc(N[C@H](C)C3CCC3)ncc2C(N)=O)C[C@H]1O [Example 459, 2-((R)-1-cyclobutylethylamino)-4-((1R,3R,4R)-3-hydroxy-4-methylcyclohexylamino)pyrimidine-5-carboxamide]
23 | < 200 nM | CC(C)(C)Nc1nc(N[C@@H]2CCC[C@@H](O)C2)ncc1C(N)=O [Example 299, 4-(tert-butylamino)-2-((1R,3R)-3-hydroxycyclohexylamino)pyrimidine-5-carboxamide]
24 | < 200 nM | CC(C)[C@H](C)Nc1nc(N[C@H]2CC[C@H](O)CC2)ncc1C(N)=O [Example 284, 2-((1r,4S)-4-hydroxycyclohexylamino)-4-((S)-3-methylbutan-2-ylamino)pyrimidine-5-carboxamide]
25 | < 200 nM | CCC1(Nc2nc(N[C@H]3CC[C@H](OC4CC4)CC3)ncc2C(N)=O)CCCC1 [Example 463, 2-((1r,4r)-4-cyclopropoxycyclohexylamino)-4-(1-ethylcyclopentylamino)pyrimidine-5-carboxamide]
26 | < 200 nM | CC1(Nc2nc(NC34CCC(O)(CC3)C4)ncc2C(N)=O)CCC1 [Example 451, 2-(4-hydroxybicyclo[2.2.1]heptan-1-ylamino)-4-(1-methylcyclobutylamino)pyrimidine-5-carboxamide]
27 | < 200 nM | CCO[C@H]1CC[C@H](Nc2ncc(C(N)=O)c(NC(C)(C)C(C)(C)C)n2)CC1 [Example 332, 2-((1r,4r)-4-ethoxycyclohexylamino)-4-(2,3,3-trimethylbutan-2-ylamino)pyrimidine-5-carboxamide]
28 | < 200 nM | CC1CCC1Nc1nc(N[C@H]2CC[C@H](O)CC2)ncc1C(N)=O (stereo partly drawn) [Example 246, 2-((1r,4r)-4-hydroxycyclohexylamino)-4-(2-methylcyclobutylamino)pyrimidine-5-carboxamide]
29 | < 200 nM | CCC(C)(C)Nc1nc(N[C@H]2CC[C@H](O)CC2)ncc1C(N)=O [Example 225, 2-((1r,4r)-4-hydroxycyclohexylamino)-4-(tert-pentylamino)pyrimidine-5-carboxamide]
30 | < 200 nM | CC(C)CNc1ncc(C(N)=O)c(N[C@@H]2CCC[C@H](O)C2)n1 [Example 495, 4-((1R,3S)-3-hydroxycyclohexylamino)-2-(isobutylamino)pyrimidine-5-carboxamide]
31 | < 200 nM | CCC(C)(C)Nc1nc(N[C@H]2CC[C@H](OC)CC2)ncc1C(N)=O [Example 381, 2-((1r,4r)-4-methoxycyclohexylamino)-4-(tert-pentylamino)pyrimidine-5-carboxamide]
32 | < 200 nM | CC(C)(C)Nc1nc(N[C@H]2CC[C@H](OCC(F)(F)F)CC2)ncc1C(N)=O [Example 212, 4-(tert-butylamino)-2-((1r,4r)-4-(2,2,2-trifluoroethoxy)cyclohexylamino)pyrimidine-5-carboxamide]

Same assay, conditions: tested in one or more of the JNK1 biochemical assays; read-out: Act. Level (JNK1 biochemical assay IC50 activity level)

Row | IC50 | Structure (SMILES)
33 | < 200 nM | CCO[C@H]1CC[C@H](Nc2ncc(C(N)=O)c(N[C@H]3CCCOC3)n2)CC1 [Example A-60, 2-((1r,4S)-4-ethoxycyclohexylamino)-4-((S)-tetrahydro-2H-pyran-3-ylamino)pyrimidine-5-carboxamide]
34 | < 200 nM | CC[C@H](C)Nc1nc(N[C@H]2CC[C@H](O)CC2)ncc1C(N)=O [Example A-195, 4-(sec-butylamino)-2-((1r,4S)-4-hydroxycyclohexylamino)pyrimidine-5-carboxamide]
35 | < 200 nM | CCO[C@H]1CC[C@H](Nc2ncc(C(N)=O)c(NC[C@@H](C)O)n2)CC1 [Example A-67, 2-((1r,4R)-4-ethoxycyclohexylamino)-4-((R)-2-hydroxypropylamino)pyrimidine-5-carboxamide]
36 | < 200 nM | NC(=O)c1cnc(NC2CCCCC2)nc1NC1CCCC1 [Example A-149, 2-(cyclohexylamino)-4-(cyclopentylamino)pyrimidine-5-carboxamide]
37 | < 200 nM | C[C@@H]1CC[C@@H](Nc2nc(N[C@H]3CC[C@H](OCC(F)(F)F)CC3)ncc2C(N)=O)C[C@H]1O [Example A-178, 4-((1R,3R,4R)-3-hydroxy-4-methylcyclohexylamino)-2-((1r,4R)-4-(2,2,2-trifluoroethoxy)cyclohexylamino)pyrimidine-5-carboxamide]
38 | 800 to 1000 nM | CC(C)CC(=O)N[C@H]1CC[C@@H](Nc2nc(NC3CC3)ncc2C(N)=O)CC1 [Example A-138, 2-(cyclopropylamino)-4-((1s,4s)-4-(3-methylbutanamido)cyclohexylamino)pyrimidine-5-carboxamide]
39 | < 200 nM | CC(C)Nc1nc(N[C@H]2CC[C@H](C(C)(C)O)CC2)ncc1C(N)=O [Example A-6, 2-((1r,4r)-4-(2-hydroxypropan-2-yl)cyclohexylamino)-4-(isopropylamino)pyrimidine-5-carboxamide]
